Results on 87 compounds are retold here after the Kinase Knowledgebase extract (Sharma et al. 2016).

Structures are written as SMILES.

This experiment deals with MAPK14 (human) (UniProt Q16539). The experiment can be described thus: Inhibition of MAPK14 Kinase Activity.
MAPK14 (human), sequence (Q16539 whole entry, looked up): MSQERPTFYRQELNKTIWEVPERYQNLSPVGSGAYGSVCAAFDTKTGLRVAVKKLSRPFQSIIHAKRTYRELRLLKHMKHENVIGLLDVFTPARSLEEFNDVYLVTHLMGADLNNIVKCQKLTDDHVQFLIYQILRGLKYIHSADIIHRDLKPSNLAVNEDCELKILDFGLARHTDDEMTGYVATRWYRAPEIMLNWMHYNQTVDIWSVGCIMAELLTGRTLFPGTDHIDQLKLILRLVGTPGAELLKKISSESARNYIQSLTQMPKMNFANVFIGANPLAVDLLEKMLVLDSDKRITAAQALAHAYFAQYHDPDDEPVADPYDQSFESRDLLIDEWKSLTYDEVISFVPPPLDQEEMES
For `O=C(c1ccccc1)c1c(NC(=O)[C@H]2CCCN2)sc2c1ccc(=O)n2-c1ccccc1`, the IC50 (usually the midpoint of a concentration-inhibition curve) was less than 2000 nM.

In turn, `Cc1cc(C(=O)c2c(NC(=O)C3CCN(C)CC3)sc3c2ccc(=O)n3-c2c(F)cccc2F)ccc1F` showed an IC50 of less than 2000 nM. Consider `Nc1sc2c(ccc(=O)n2-c2ccccc2)c1C(=O)c1cccs1`, for which the 50% inhibitory concentration (IC50) was less than 2000 nM.

With `CC(=O)Nc1sc2c(ccc(=O)n2-c2ccccc2Cl)c1C(=O)c1ccccc1`, the half-maximal inhibitory concentration (IC50) is less than 2000 nM. Turning to `N[C@H]1CCN(C(=O)Nc2sc3c(ccc(=O)n3-c3ccccc3)c2C(=O)c2ccccc2)C1`, the IC50 is less than 2000 nM.

`Nc1sc2c(ccc(=O)n2CC2CC2)c1C(=O)c1ccccc1`: the IC50 was less than 2000 nM. As to `CC(C)(C)OC(=O)Nc1sc2c(ccc(=O)n2-c2ccccc2)c1C(=O)c1ccccc1`, the half-maximal inhibitory concentration (IC50) is less than 2000 nM. The compound `Cc1cccc(C(=O)c2c(NC3CCNCC3)sc3c2ccc(=O)n3-c2ccccc2)c1` gave a 50% inhibitory concentration (IC50) of less than 2000 nM.

In turn, `Nc1sc2c(ccc(=O)n2-c2ccccc2)c1C(=O)c1ccccc1Cl` showed a 50% inhibitory concentration (IC50) of less than 2000 nM.

With `Cc1ccc(-n2c(=O)ccc3c(C(=O)c4ccc(F)c(C)c4)c(NC4CN(C)C4)sc32)cc1`, the IC50 was less than 2000 nM. In the case of `NC(=O)c1sc2c(ccc(=O)n2-c2ccccc2)c1C(=O)c1ccccc1` it was less than 2000 nM; in that of `O=C(c1ccccc1)c1c(N[C@H]2CCCNC2)sc2c1ccc(=O)n2-c1ccccc1`, less than 2000 nM. In the case of `CS(=O)(=O)Nc1sc2c(ccc(=O)n2-c2ccccc2)c1C(=O)c1ccccc1` it was less than 2000 nM; in that of `CC(=O)Nc1sc2c(ccc(=O)n2-c2ccccc2)c1C(=O)c1cccc(C(F)(F)F)c1`, less than 2000 nM; in that of `CN1CC(Nc2sc3c(ccc(=O)n3-c3ccccc3)c2C(=O)c2ccccc2)C1`, less than 2000 nM. In the case of `Cc1ccc(-n2c(=O)ccc3c(C(=O)c4ccccc4)c(N)sc32)cc1` it was less than 2000 nM; in that of `Cc1cc(C(=O)c2c(NC(=O)N3CC[C@@H](N(C)C)C3)sc3c2ccc(=O)n3-c2ccccc2)ccc1F`, less than 2000 nM.

Regarding `CCOC(=O)c1sc2c(ccc(=O)n2-c2ccccc2)c1C(=O)c1ccc(F)c(C)c1`, the half-maximal inhibitory concentration (IC50) is less than 2000 nM. `Cc1cc(C(=O)c2c(NC3CNC3)sc3c2ccc(=O)n3-c2c(F)cccc2F)ccc1F` came in with a half-maximal inhibitory concentration (IC50) of less than 2000 nM. The compound `COc1cccc(C(=O)c2c(N)sc3c2ccc(=O)n3-c2ccccc2)c1` yielded an IC50 of less than 2000 nM. In the case of `Cc1cc(C(=O)c2c(N)sc3c2ccc(=O)n3-c2ccccc2)ccc1F` it was less than 2000 nM. In the case of `Nc1sc2c(ccc(=O)n2-c2ccccc2Cl)c1C(=O)c1ccccc1` it was less than 2000 nM; in that of `Cc1ccc(C(=O)c2c(N)sc3c2ccc(=O)n3-c2ccccc2)cc1`, less than 2000 nM. Turning to `Cc1cc(C(=O)c2c(NC(=O)NC(C)(C)CO)sc3c2ccc(=O)n3-c2ccccc2Cl)ccc1F`, the IC50 was less than 2000 nM. In the case of `O=C(c1ccccc1)c1c(N[C@H]2CCNC2)sc2c1ccc(=O)n2-c1ccccc1` it was less than 2000 nM. Turning to `CC(C)(CO)NC(=O)Nc1sc2c(ccc(=O)n2CC2CC2)c1C(=O)c1ccccc1`, the 50% inhibitory concentration (IC50) is less than 2000 nM. As for `Cc1cc(C(=O)c2c(N)sc3c2ccc(=O)n3-c2c(F)cccc2F)ccc1F`, the IC50 was less than 2000 nM.

Turning to `Cc1cccc(C(=O)c2c(NS(C)(=O)=O)sc3c2ccc(=O)n3-c2ccccc2)c1`, the IC50 was less than 2000 nM.

`Nc1sc2c(ccc(=O)n2-c2ccccc2)c1C(=O)c1ccc(OC(F)(F)F)cc1` registered an IC50 of less than 2000 nM.

With `CC(=O)Nc1sc2c(ccc(=O)n2CC2CC2)c1C(=O)c1ccccc1`, the IC50 is less than 2000 nM. In the case of `Cc1cc(C(=O)c2c(C(N)=O)sc3c2ccc(=O)n3-c2ccccc2)ccc1F`, the IC50 was less than 2000 nM. `CC(=O)Nc1sc2c(ccc(=O)n2-c2ccccc2)c1C(=O)c1cccs1` yielded an IC50 of less than 2000 nM. Then `CN(C)C(=O)CNc1sc2c(ccc(=O)n2-c2ccccc2)c1C(=O)c1ccccc1`, with less than 2000 nM; and `CNC(=O)c1sc2c(ccc(=O)n2-c2ccccc2)c1C(=O)c1ccccc1`, with less than 2000 nM. In the case of `Cc1cc(C(=O)c2c(NC3CNC3)sc3c2ccc(=O)n3CC2CC2)ccc1F` it was less than 2000 nM; in that of `Cc1cc(C(=O)c2c(NC(=O)NCC(C)(C)O)sc3c2ccc(=O)n3-c2ccccc2)ccc1F`, less than 2000 nM.

`CCOc1ccc(C(=O)c2c(N)sc3c2ccc(=O)n3-c2ccccc2)cc1C` displayed an IC50 of less than 2000 nM.

`O=C(c1ccccc1)c1c(C(=O)N2CCC2)sc2c1ccc(=O)n2-c1ccccc1` had an IC50 of less than 2000 nM. Then `Cc1cccc(C(=O)c2c(NC(=O)NNS(C)(=O)=O)sc3c2ccc(=O)n3-c2ccccc2)c1`, with less than 2000 nM; and `Cc1cccc(C(=O)c2c(C(=O)O)sc3c2ccc(=O)n3-c2ccccc2)c1`, with less than 2000 nM.

`CN1CC(Nc2sc3c(ccc(=O)n3-c3c(F)cccc3F)c2C(=O)c2ccccc2)C1` gave an IC50 of less than 2000 nM. On to `CC(C)N1CC(Nc2sc3c(ccc(=O)n3-c3ccccc3)c2C(=O)c2ccccc2)C1`, for which the half-maximal inhibitory concentration (IC50) is less than 2000 nM.

For `CN1CC[C@H](NC(=O)Nc2sc3c(ccc(=O)n3-c3ccccc3)c2C(=O)c2ccccc2)C1`, the IC50 was less than 2000 nM. Then `CCOC(=O)c1sc2c(ccc(=O)n2-c2ccccc2)c1C(=O)c1cccc(Cl)c1`, with less than 2000 nM. `CN1CC(CNc2sc3c(ccc(=O)n3-c3ccccc3)c2C(=O)c2ccccc2)C1` yielded an IC50 of less than 2000 nM. Take `Cc1cccc(C(=O)c2c(NC(=O)N3CCC3)sc3c2ccc(=O)n3-c2ccccc2)c1`: the concentration for half-maximal inhibition (IC50) was less than 2000 nM. Turning to `Nc1sc2c(ccc(=O)n2-c2cccnc2)c1C(=O)c1ccccc1`, the IC50 was less than 2000 nM. In the case of `CC(C)N[C@H]1CCN(C(=O)Nc2sc3c(ccc(=O)n3-c3ccccc3)c2C(=O)c2ccccc2)C1`, the IC50 was less than 2000 nM. Then `CN(C)c1sc2c(ccc(=O)n2-c2ccccc2)c1C(=O)c1ccccc1`, with less than 2000 nM; and `Cc1cc(C(=O)c2c(NC3CCN(C(C)C)CC3)sc3c2ccc(=O)n3-c2ccccc2)ccc1F`, with less than 2000 nM. `Cc1cc(C(=O)c2c(NC3CNC3)sc3c2ccc(=O)n3-c2ccccc2)ccc1F` had an IC50 of less than 2000 nM. Then `O=C(c1cccc(Cl)c1)c1c(NC(=O)C2CCNCC2)sc2c1ccc(=O)n2-c1ccccc1`, with less than 2000 nM. Then `CCN1CCC(Nc2sc3c(ccc(=O)n3-c3ccccc3)c2C(=O)c2ccc(F)c(C)c2)CC1`, with less than 2000 nM; and `Cc1ccc(-n2c(=O)ccc3c(C(=O)c4ccc(F)c(C)c4)c(NC4CNC4)sc32)cc1`, with less than 2000 nM; and `Cc1cccc(C(=O)c2c(N)sc3c2ccc(=O)n3-c2ccccc2)c1`, with less than 2000 nM. Then `CC(C)(O)CNC(=O)Nc1sc2c(ccc(=O)n2CC2CC2)c1C(=O)c1ccccc1`, with less than 2000 nM. For `O=C(c1ccccc1)c1c(N2CCOCC2)sc2c1ccc(=O)n2-c1ccccc1`, the half-inhibitory concentration (IC50) was less than 2000 nM. `O=C(c1ccccc1)c1c(C(=O)N2CCC[C@H]2CO)sc2c1ccc(=O)n2-c1ccccc1` returned an IC50 of less than 2000 nM. Then `NC1CN(c2sc3c(ccc(=O)n3-c3ccccc3)c2C(=O)c2ccccc2)C1`, with less than 2000 nM; and `Nc1sc2c(ccc(=O)n2-c2ccccc2)c1C(=O)c1ccc(Cl)cc1`, with less than 2000 nM. As for `CN1CCC(Nc2sc3c(ccc(=O)n3-c3ccccc3)c2C(=O)c2ccccc2)CC1`, the concentration for half-maximal inhibition (IC50) was less than 2000 nM.

Regarding `O=C(NCCO)Nc1sc2c(ccc(=O)n2-c2ccccc2)c1C(=O)c1ccccc1`, the half-inhibitory concentration (IC50) was less than 2000 nM. Then `O=C(c1ccccc1)c1c(C(=O)N2CCCC2)sc2c1ccc(=O)n2-c1ccccc1`, with less than 2000 nM; and `CC(=O)Nc1sc2c(ccc(=O)n2-c2ccccc2)c1C(=O)c1cccc(C)c1`, with less than 2000 nM. As to `CNC(=O)CNc1sc2c(ccc(=O)n2-c2ccccc2)c1C(=O)c1ccccc1`, the half-maximal inhibitory concentration (IC50) was less than 2000 nM.

Compound `CC(=O)Nc1sc2c(ccc(=O)n2-c2ccccc2)c1C(=O)c1ccccc1` had a concentration for half-maximal inhibition (IC50) of less than 2000 nM. In the case of `CC(=O)Nc1sc2c(ccc(=O)n2-c2ccccc2Cl)c1C(=O)c1cccc(C)c1` it was less than 2000 nM; in that of `CN1CCC(C(=O)Nc2sc3c(ccc(=O)n3-c3ccccc3Cl)c2C(=O)c2ccccc2)CC1`, less than 2000 nM. Then `Nc1sc2c(ccc(=O)n2-c2ccccc2)c1C(=O)c1ccc(C(F)(F)F)cc1`, with less than 2000 nM; and `COc1ccc(C(=O)c2c(N)sc3c2ccc(=O)n3-c2ccccc2)cc1`, with less than 2000 nM; and `Cc1cc(C(=O)c2c(NC3CCN(C)CC3)sc3c2ccc(=O)n3-c2c(F)cccc2F)ccc1F`, with less than 2000 nM. As for `O=C(O)c1sc2c(ccc(=O)n2-c2ccccc2)c1C(=O)c1ccccc1`, the IC50 was less than 2000 nM.

`CC(=O)Nc1sc2c(ccc(=O)n2-c2ccccc2)c1C(=O)c1ccccc1Cl` registered a half-maximal inhibitory concentration (IC50) of less than 2000 nM. Then `Cc1cc(C(=O)c2c(NC(=O)N3CCN(C)CC3)sc3c2ccc(=O)n3-c2ccccc2)ccc1F`, with less than 2000 nM; and `N#Cc1ccc(C(=O)c2c(N)sc3c2ccc(=O)n3-c2ccccc2)cc1`, with less than 2000 nM. As to `Cc1cccc(C(=O)c2c(C(N)=O)sc3c2ccc(=O)n3-c2ccccc2)c1`, the IC50 is less than 2000 nM. Compound `CC(=O)Nc1sc2c(ccc(=O)n2-c2ccccc2Cl)c1C(=O)c1ccc(F)c(C)c1` displayed an IC50 of less than 2000 nM. As for `CCN1CCC(NC(=O)Nc2sc3c(ccc(=O)n3-c3ccccc3)c2C(=O)c2cccc(C)c2)C1` (configuration not stated), the IC50 was less than 2000 nM.

Take `N#Cc1cccc(C(=O)c2c(N)sc3c2ccc(=O)n3-c2ccccc2)c1`: the IC50 is less than 2000 nM.

In turn, `COc1cccc(C(=O)c2c(NC3CCN(C)CC3)sc3c2ccc(=O)n3-c2ccccc2)c1` came in with an IC50 of less than 2000 nM. As for `CC(=O)Nc1sc2c(ccc(=O)n2-c2ccccc2)c1C(=O)c1cccc(OC(F)F)c1`, the IC50 was less than 2000 nM. Regarding `O=C(Nc1sc2c(ccc(=O)n2-c2ccccc2)c1C(=O)c1ccccc1)N[C@H]1CCNC1`, the IC50 was less than 2000 nM. Then `CN1CC[C@H](Nc2sc3c(ccc(=O)n3-c3ccccc3)c2C(=O)c2ccccc2)C1`, with less than 2000 nM. In the case of `CC(=O)Nc1sc2c(ccc(=O)n2-c2ccccc2F)c1C(=O)c1cccc(C)c1` it was less than 2000 nM. Compound `Cc1cc(C(=O)c2c(NC(=O)NC(C)(C)CO)sc3c2ccc(=O)n3-c2ccccc2)ccc1F` had an IC50 of less than 2000 nM. With `Cc1cc(C(=O)c2c(NC3CCN(C)CC3)sc3c2ccc(=O)n3-c2ccc(F)cc2)ccc1F`, the half-maximal inhibitory concentration (IC50) is less than 2000 nM. In the case of `Cc1cc(C(=O)c2c(NC3CN(C)C3)sc3c2ccc(=O)n3-c2ccccc2)ccc1F` it was less than 2000 nM.
